Experimental data: patent US20240262848A1, “HETEROCYCLIC COMPOUNDS, COMPOSITIONS THEREOF, AND METHODS OF TREATMENT THEREWITH” (BeiGene, Ltd., priority 2022, published 2024)

Key:
[1] = molecular target: GST-tagged GDP-loaded KRAS G12D (amin acids 1-188) (Homo sapiens, UniProt P01116, G12D); test: KRAS G12D probe displacement assay (TR-FRET); assay type: binding; details: Table 5; KRAS G12D 0.5 nM, biotinylated probe 2 4 nM
Procedure: Plates are incubated at 24° C. for 1 hr.

[2] = system: pERK1/2(THR202/TYR204) level in AsPC-1 cell line; test: KRAS G12D pERK assay in AsPC-1 cells (HTRF); assay type: cell-based; details: Homo sapiens, ASPC1, Table 5, 2 h compound treatment
Procedure: AsPC-1 cell line was used in this study. Cells were maintained in RPMI-1640 supplemented with 10% fetal bovine serum (Thermo Fisher), 50 units/ml, penicillin and streptomycin (Thermo Fisher) and kept at 37° C. in a humidified atmosphere of 5% CO2 in air. Cells were reinstated from frozen stocks that were laid down within 30 passages from the original cells purchased. 30000 cells per well were seeded into a 96-well plate and incubated overnight. Cells were treated with a 10-point dilution series. The final compound concentration is from 0 to 10 μM. After 2 h compound treatment, cells were lysed, and the pERK1/2(THR202/TYR204) level in the cell lysates was detected by HTRF kit (Cisbio). In brief, a total of 16 μL of cell lysate from each well of a 96-well plate was transferred to a 384-well white assay plate. Lysate from each well was incubated with 2 μL of Eu3+-cryptate (donor) labeled anti-phospho-ERK1/2 and 2 μL of D2 (acceptor) labeled anti-phospho-ERK1/2 antibodies (Cisbio) overnight in dark at room temperature. When the donor and acceptor are in close proximity, excitation of the donor with laser triggers a Fluorescence Resonance Energy Transfer (FRET) towards the acceptor, which in turn fluoresces at 655 nm wavelength. FRET signals were measured using a PHERAstar FSX reader (BMG Labtech). IC50 determination was performed by fitting the curve of percent inhibition versus the log of the inhibitor concentration using Dotmatics.

[3] = molecular target: GST-tagged GDP-loaded KRAS G12V (amino acids 1-169) (Homo sapiens, UniProt P01116, G12V); test: KRAS G12V probe displacement assay (TR-FRET); assay type: binding; details: Table 4; KRAS G12V 2 nM, biotinylated probe 2 2.5 nM
GST-tagged GDP-loaded KRAS G12V (amino acids 1-169), sequence (P01116 1-169 isoform P01116-2 G12V): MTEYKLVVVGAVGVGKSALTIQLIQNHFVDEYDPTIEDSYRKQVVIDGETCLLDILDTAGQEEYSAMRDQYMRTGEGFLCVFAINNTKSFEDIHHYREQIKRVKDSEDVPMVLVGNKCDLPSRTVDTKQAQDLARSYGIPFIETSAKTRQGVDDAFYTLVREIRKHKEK
Procedure: Plates are incubated at 24 °C for 1 hr. […] After 1 hr incubation at 24° C.

[4] = system: pERK1/2(THR202/TYR204) level in SW620 cell line; test: KRAS G12V pERK assay in SW620 cells (HTRF); assay type: cell-based; details: Homo sapiens, SW-620, Table 4, 2 hrs compound treatment
Procedure: SW620 cell line was used in this study. Cells were maintained in RPMI 1640 supplemented with 10% fetal bovine serum (Thermo Fisher), 50 units/mL penicillin and streptomycin (Thermo Fisher) and kept at 37° C. in a humidified atmosphere of 5% CO2 in air. Cells were reinstated from frozen stocks that were laid down within 30 passages from the original cells purchased. 40000 cells per well were seeded into a 96-well plate and incubated overnight. Cells were treated with a 10-point dilution series. The final compound concentration is from 0 to 10 μM. After 2 hrs compound treatment, cells were lysed, and the pERK1/2(THR202/TYR204) level in the cell lysates was detected by HTRF kit (Cisbio). In brief, a total of 16 μL of cell lysate from each well of a 96-well plate was transferred to a 384-well white assay plate. Lysate from each well was incubated with 2 μL of Eu3+-cryptate (donor) labeled anti-phospho-ERK1/2 and 2 μL of D)2 (acceptor) labeled anti-phospho-ERK1/2 antibodies (Cisbio) overnight in dark at room temperature. When donor and acceptor are in close proximity, excitation of the donor with laser triggers a Fluorescence Resonance Energy Transfer (FRET) towards the acceptor, which in turn fluoresces at 655 nm wavelength. FRET signals were measured using a PHERAstar FSX reader (BMG Labtech). IC50 determination was performed by fitting the curve of percent inhibition versus the log of the inhibitor concentration using Dotmatics.

GST-tagged GDP-loaded KRAS G12D (amin acids 1-188), sequence (P01116 1-188 isoform P01116-2 G12D): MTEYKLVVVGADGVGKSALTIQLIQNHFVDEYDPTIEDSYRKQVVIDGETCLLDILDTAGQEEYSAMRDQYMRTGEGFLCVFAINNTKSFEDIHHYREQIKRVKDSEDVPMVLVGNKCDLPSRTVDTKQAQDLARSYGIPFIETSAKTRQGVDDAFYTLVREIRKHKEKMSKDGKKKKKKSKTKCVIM

CNCCN1c2nc(OC[C@@]34CCCN3C[C@H](F)C4)nc3c(F)c(-c4cc(N)cc(Cl)c4C(F)(F)F)nc(c23)OCC12CCC2 [Example 36, 3-chloro-5-(4′-fluoro-2′-(((2R,7aS)-2-fluorotetrahydro-1H-pyrrolizin-7a(5H)-yl)methoxy)-10′-(2-(methylamino)ethyl)-8′H, 10′H-7′-oxa-1′,3′,6′,10′-tetraazaspiro[cyclobutane-1,9′-cyclohepta[de]naphthalen]-1′(10a′), 2′0.3a′, 3 al′(6a′), 5′-pentaen-5′-yl)-4-(trifluoromethyl)aniline]
IC50 [1]: 1.1 nM
IC50 [2]: 2160 nM

CN(C)CCN1c2nc(OC[C@@]34CCCN3C[C@H](F)C4)nc3c(F)c(-c4cc(N)cc(Cl)c4C(F)(F)F)nc(c23)OCCC12COC2 [Example 44, 3-chloro-5-(11-(2-(dimethylamino)ethyl)-4-fluoro-2-(((2R,7aS)-2-fluorotetrahydro-1H-pyrrolizin-7a(5H)-yl)methoxy)-8,9-dihydro-11H-7-oxa-1,3,6,11-tetraazaspiro[cycloocta[de]naphthalene-10,3′-oxetan]-1(11a), 2,3a, 4,6-pentaen-5-yl)-4-(trifluoromethyl)aniline]
IC50 [1]: 0.65 nM
IC50 [2]: 184 nM

Nc1cc(Cl)c(C(F)(F)F)c(-c2nc3c4c(nc(OC[C@@]56CCCN5C[C@H](F)C6)nc4c2F)N([C@@H]2CCNC2)CCCO3)c1 [Example 41, 3-chloro-5-(4-fluoro-2-(((2R,7aS)-2-fluorotetrahydro-1H-pyrrolizin-7a(5H)-yl)methoxy)-11-((R)-pyrrolidin-3-yl)-8,9,10,11-tetrahydro-7-oxa-1,3,6,11-tetraazacycloocta[de]naphthalen-5-yl)-4-(trifluoromethyl)aniline]
IC50 [1]: 34 nM

CNCC(C)N1CCCOc2nc(-c3cc(N)cc(Cl)c3C(F)(F)F)c(F)c3nc(OC[C@@]45CCCN4C[C@H](F)C5)nc1c23 (stereo partly drawn) [Example 39, 3-chloro-5-(4-fluoro-2-(((2R,7aS)-2-fluorotetrahydro-1H-pyrrolizin-7a(5H)-yl)methoxy)-11-(1-(methylamino)propan-2-yl)-8,9,10,11-tetrahydro-7-oxa-1,3,6,11-tetraazacycloocta[de]naphthalen-5-yl)-4-(trifluoromethyl)aniline]
IC50 [1]: 3.9 nM
IC50 [2]: 1780 nM

CN1c2nc(OC[C@@]34CCCN3C[C@H](F)C4)nc3c(F)c(-c4cc(N)cc(Cl)c4C(F)(F)F)nc(c23)OCC2CNCC21 (stereo partly drawn) [Example 27, 3-chloro-5-(4-fluoro-2-(((2R,7aS)-2-fluorotetrahydro-1H-pyrrolizin-7a(5H)-yl)methoxy)-12-methyl-8a, 9,10,11,11a, 12-hexahydro-8H-7-oxa-1,3,6,10,12-pentaazacyclopenta[5,6]cycloocta[1,2,3-de]naphthalen-5-yl)-4-(trifluoromethyl)aniline]
IC50 [1]: 0.95 nM
IC50 [2]: 836 nM

CN(C)CCN1c2nc(OC[C@@]34CCCN3C[C@H](F)C4)nc3c(F)c(-c4cc(N)cc(Cl)c4C(F)(F)F)nc(c23)OCC12CCC2 [Example 37, 3-chloro-5-(10′-(2-(dimethylamino)ethyl)-4′-fluoro-2′-(((2R,7aS)-2-fluorotetrahydro-1H-pyrrolizin-7a(5H)-yl)methoxy)-8′H, 10′H-7′-oxa-1′,3′,6′,10′-tetraazaspiro[cyclobutane-1,9′-cyclohepta[de]naphthalen]-1′(10a′), 2′,3a′, 3 al′(6a′), 5′-pentaen-5′-yl)-4-(trifluoromethyl)aniline]
IC50 [1]: 2.3 nM
IC50 [2]: 639 nM

CNCCN1CCCOc2nc(-c3cc(N)cc(Cl)c3C(F)(F)F)c(F)c3nc(OC[C@@]45CCCN4C[C@H](F)C5)nc1c23 [Example 17, 3-chloro-5-(4-fluoro-2-(((2R,7aS)-2-fluorotetrahydro-1H-pyrrolizin-7a(5H)-yl)methoxy)-11-(2-(methylamino)ethyl)-8,9,10,11-tetrahydro-7-oxa-1,3,6,11-tetraazacycloocta[de]naphthalen-5-yl)-4-(trifluoromethyl)aniline]
IC50 [1]: 9.6 nM

C[C@@H]1CCOc2nc(-c3cc(N)cc(Cl)c3C(F)(F)F)c(F)c3nc(OC[C@@]45CCCN4C[C@H](F)C5)nc(c23)N1C [Example 26, 3-chloro-5-((R)-4-fluoro-2-(((2R,7aS)-2-fluorotetrahydro-1H-pyrrolizin-7a(5H)-yl)methoxy)-10,11-dimethyl-8,9,10,11-tetrahydro-7-oxa-1,3,6,11-tetraazacycloocta[de]naphthalen-5-yl)-4-(trifluoromethyl)aniline]
IC50 [3]: 0.79 nM
IC50 [4]: 32 nM

Cc1cc(N)cc(-c2nc3c4c(nc(OC[C@@]56CCCN5C[C@H](F)C6)nc4c2F)N(C)CCO3)c1C(F)(F)F [Example 3, 3-(4-fluoro-2-(((2R,7aS)-2-fluorotetrahydro-1H-pyrrolizin-7a(5H)-yl)methoxy)-10-methyl-9,10-dihydro-8H-7-oxa-1,3,6,10-tetraazacyclohepta[de]naphthalen-5-yl)-5-methyl-4-(trifluoromethyl)aniline]
IC50 [3]: 15 nM
IC50 [4]: 402 nM

Nc1cc(Cl)c(C(F)(F)F)c(-c2nc3c4c(nc(OC[C@@]56CCCN5C[C@H](F)C6)nc4c2F)N(CCO)CCO3)c1 [Example 7, 2-(5-(5-amino-3-chloro-2-(trifluoromethyl)phenyl)-4-fluoro-2-(((2R,7aS)-2-fluorotetrahydro-1H-pyrrolizin-7a(5H)-yl)methoxy)-8,9-dihydro-10H-7-oxa-1,3,6,10-tetraazacyclohepta[de]naphthalen-10-yl)ethan-1-ol]
IC50 [3]: 2.5 nM
IC50 [4]: 586 nM

Nc1cc(Cl)c(C(F)(F)F)c(-c2nc3c4c(nc(OC[C@@]56CCCN5C[C@H](F)C6)nc4c2F)N(C2CC2)CCCO3)c1 [Example 4, 3-chloro-5-(11-cyclopropyl-4-fluoro-2-(((2R,7aS)-2-fluorotetrahydro-1H-pyrrolizin-7a(5H)-yl)methoxy)-8,9,10,11-tetrahydro-7-oxa-1,3,6,11-tetraazacycloocta[de]naphthalen-5-yl)-4-(trifluoromethyl)aniline]
IC50 [3]: 8.1 nM
IC50 [4]: 549 nM

CN1c2nc(OCC3(C)CCC4COCCN4C3)nc3c(F)c(-c4cc(N)cc(Cl)c4C(F)(F)F)nc(c23)O[C@H]2COCC[C@@H]21 (stereo partly drawn) [Example 60, 3-chloro-5-((7aR,11aS)-4-fluoro-12-methyl-2-((7-methyloctahydropyrido[2,1-c][1,4]oxazin-7-yl)methoxy)-7a, 8,10,11,11a, 12-hexahydro-7,9-dioxa-1,3,6,12-tetraazapleiaden-5-yl)-4-(trifluoromethyl)aniline]
IC50 [3]: 0.63 nM
IC50 [4]: 20 nM

Cc1cc(N)cc(-c2nc3c4c(nc(OC[C@@]56CCCN5C[C@H](F)C6)nc4c2F)N(C)C2(CCO3)CC2)c1C(F)(F)F [Example 53, 3-(4-fluoro-2-(((2R,7aS)-2-fluorotetrahydro-1H-pyrrolizin-7a(5H)-yl)methoxy)-11-methyl-8,9-dihydro-11H-7-oxa-1,3,6,11-tetraazaspiro[cycloocta[de]naphthalene-10,1′-cyclopropan]-1(11a), 2,3a, 3 al(6a), 5-pentaen-5-yl)-5-methyl-4-(trifluoromethyl)aniline]
IC50 [3]: 0.63 nM
IC50 [4]: 26 nM

CN1c2nc(OC[C@@]34CCCN3C[C@H](F)C4)nc3c(F)c(-c4cc(N)cc(Cl)c4C(F)(F)F)nc(c23)O[C@@H]2CCC[C@H](O)[C@H]21 (relative stereo) [Example 47, (7aR*,11S*,11aR*)-5-(5-amino-3-chloro-2-(trifluoromethyl)phenyl)-4-fluoro-2-(((2R,7aS)-2-fluorotetrahydro-1H-pyrrolizin-7a(5H)-yl)methoxy)-12-methyl-7a, 8,10,11,11a, 12-hexahydro-9H-7-oxa-1,3,6,12-tetraazapleiaden-11-ol]
IC50 [3]: 0.61 nM
IC50 [4]: 73 nM
